Source: US5468758A, “Crystalline forms of endo-2,3-dihydro-N-(8-methyl)-8-azabicyclo[3.2.1]oct-3-yl)-2-oxo-1H-benz imidazole-1-carboxamides” (Boehringer Ingelheim Italia S.p.A., priority 1992, dated 1995)
Structures can show the parent of a compound that is named as a salt.

Columns and labels:
Format in all cases: physicochemical
[1] = Water loss on desiccation under vacuum; settings: between room temperature and 60° C. under vacuum, most preferably 40° C., 0.1 mm Hg, 24 hours; in words
Method: Compounds 2a and 2b may be prepared by dissolving the compounds 1a and 1b, as free base, in a hot aqueous solvent, preferably a hot aqueous alkanol, by adding the required amount of gaseous hydrogen chloride, filtering the resulting solution and letting it cool to room temperature. In a preferred embodiment of the process according to the invention, compound 2a is prepared by using, as an hot aqueous alkanol, hot 85% aqueous ethanol. The crystals of compound 2a may be collected by vacuum filtration and are washed with a small amount of aqueous ethanol. In a preferred embodiment of the process according to the invention, compound 2b is prepared by using, as an hot aqueous alkanol, hot 95% aqueous isopropanol. The crystals of compound 2b may be collected by vacuum filtration and are washed with a small amount of aqueous isopropanol. […] Water content may be measured by usual techniques such as the Karl Fischer test. Alternatively, compounds 2a and 2b may be conveniently prepared by dissolving the anhydrous form of compounds 1a and 1b, as hydrochloride, in hot aqueous ethanol, preferably 85% ethanol (respectively in hot aqueous isopropanol, preferably 95% isopropanol) and allowing to cool the solution at room temperature; crystals of compound 2 a (respectively 2b), separated from the cooled solution, are collected by vacuum filtration and manipulated as previously described. […]

[2] = Long-term real time stability tests in tablets and capsules
From the text: (§1) Drug stability in these final compositions may be measured in accelerated stability tests or in long term real time stability tests. In accelerated stability tests, the above pharmaceutical compositions are exposed at high temperatures at different degrees of relative humidity for a period of time. Such tests are considered to be indicative of the stability of the composition at normal conditions. In long term real time stability studies the final compositions are exposed to normal conditions of storage at ambient temperatures at different degrees of relative humidity.
Tablets and capsules are packaged in PVC/PVDC blister with aluminium foil

[3] = Milling studies (FRITSCH Pulverisette 14 Rotor Speed Mill)
Method: The milling process was performed by the FRITSCH Pulverisette 14 Rotor Speed Mill supplied with circular sieve stainless steel with trapezoidal 0.080 mm diameter openings. The samples were passed through the mill twice at 20.000 rpm motor speed. The sample is assayed for title and degradation products by TLC and HPLC, physical state by DSC, water content by TGA, particle size distribution by Mercury Instrusion Porosimetry. The mi 11ed compounds are formulated in capsules and tablets at very low dose level (0.5 mg) by direct mixing and direct compression manufacturing method, respectively.

[4] = Moisture sorption/desorption studies (hygrostat, storage at different temperatures and relative humidity); set-up: water content (Table VI): unit not given here; settings: for water content (Table VII): 11.2% RH, % on the weight of compound 1b
Method: The determination of the sorption isotherms was carried out in a hygrostat.
At suitable intervals, the sample was weighed by means of a sample balance. The atmosphere in the hygrostat and therefore around the sample of compound 1a (1b) and 2a (2b) was conditioned and kept by a saturated solutions of a suitable salt:
Na Cl saturated solution 75.3% RH/25° C. 74.8% RH/37° C.
KNO3 saturated solution 93.7% RH/25° C. 90.0% RH/37° C.
At the end of the experiment, after completing the hysteresis, that is the adsorption--desorption cycle of humidity, the compound was assayed for the title and degradation products by TLC and HPLC, the physical state by DSC and water content by TGA.

[5] = Accelerated stability tests in tablets and capsules
From the text: as §1
(*)according to H. Leven Berger Pharm. Act. Helv. 50 (1975) 88-91 it is
equivalent to 2 years storage at room temperature. Tablets and capsules
are packaged in PVC/PVDC blister with aluminium foil.
(*)according to "Guidelines for stability studies for Human Drugs and
Biologics" (1987) (USA/FDA) it is equivalent to 2 years at room
temperature. Tablets and capsules are packaged in PVC/PVDC blister with […]

## CCn1c(=O)n(C(=O)N[C@H]2C[C@H]3CC[C@@H](C2)N3C)c2ccccc21 [Compound 2b, Endo-3-ethyl-2,3-dihydro-N-(8-methyl-8-azabicyclo-[3.2.1]oct-3-yl)-2-oxo-1H-benzimidazole-1-carboxamide, hydrochloride monohydrate]
[1]
  loss of water content on desiccation: without any appreciable loss of water content
[2]
  stability in tablets and capsules: better stability
[3]; Mercury Porosimetry Analysis, in words
  particle size reduction (milling efficiency): same rank order
[3]; after milling, hydrochloride monohydrate
  humidity content: 4.8%
[4]
  stability in condition of storage: stable
[4]; 11 RH, 37° C., in words
  water content in conditions of extreme dryness: not affected
[4]; 37° C., 1 h
  water content (Table VII): 5.00%
[4]; 37° C., 2 h
  water content (Table VII): 4.85%
[4]; 37° C., 4 h
  water content (Table VII): 4.80%
[4]; 37° C., 6 h
  water content (Table VII): 4.70%
[4]; 37° C., 6 days
  water content (Table VII): 4.70%
[4]; 37° C., time 0
  water content (Table VII): 5.02%
[4]; 37° C., 49.2% RH, 2 h, hydrochloride monohydrate
  water content (Table VI): 5.03
[4]; 37° C., 49.2% RH, 4 h, hydrochloride monohydrate
  water content (Table VI): 5.04
[4]; 37° C., 49.2% RH, 6 h, hydrochloride monohydrate
  water content (Table VI): 5.00
[4]; 37° C., 49.2% RH, 1 d, hydrochloride monohydrate
  water content (Table VI): 5.00
[4]; 37° C., 49.2% RH, 4 d, hydrochloride monohydrate
  water content (Table VI): 5.04
[4]; 37° C., 49.2% RH, 10 d, hydrochloride monohydrate
  water content (Table VI): 4.95
[4]; 37° C., 49.2% RH, 30 d, hydrochloride monohydrate
  water content (Table VI): 5.02
[4]; 37° C., 49.2% RH, time 0, hydrochloride monohydrate
  water content (Table VI): 5.00
[4]; 37° C., 74.8% RH, 2 h, hydrochloride monohydrate
  water content (Table VI): 5.05
[4]; 37° C., 74.8% RH, 4 h, hydrochloride monohydrate
  water content (Table VI): 5.05
[4]; 37° C., 74.8% RH, 6 h, hydrochloride monohydrate
  water content (Table VI): 5.07
[4]; 37° C., 74.8% RH, 1 d, hydrochloride monohydrate
  water content (Table VI): 5.07
[4]; 37° C., 74.8% RH, 4 d, hydrochloride monohydrate
  water content (Table VI): 5.07
[4]; 37° C., 74.8% RH, 10 d, hydrochloride monohydrate
  water content (Table VI): 4.97
[4]; 37° C., 74.8% RH, 30 d, hydrochloride monohydrate
  water content (Table VI): 5.00
[4]; 37° C., 74.8% RH, time 0, hydrochloride monohydrate
  water content (Table VI): 5.00
[4]; different temperatures and relative humidity, in words, hydrochloride monohydrate
  moisture absorption: do not absorb moisture
[5]
  stability in tablets and capsules: better stability
